Consider 14 compounds from patent publication US20260042762A1 (Kymera Therapeutics, Inc., priority 2018, published 2026).

Each structure is given as a SMILES string. Structures can show the parent of a compound that is named as a salt.

For this assay, the target named is T1, MerTK (Homo sapiens, UniProt Q12866).
T1 construct: endogenous in cells; host or cells: Jurkat cells
T1 sequence (Q12866 21-999): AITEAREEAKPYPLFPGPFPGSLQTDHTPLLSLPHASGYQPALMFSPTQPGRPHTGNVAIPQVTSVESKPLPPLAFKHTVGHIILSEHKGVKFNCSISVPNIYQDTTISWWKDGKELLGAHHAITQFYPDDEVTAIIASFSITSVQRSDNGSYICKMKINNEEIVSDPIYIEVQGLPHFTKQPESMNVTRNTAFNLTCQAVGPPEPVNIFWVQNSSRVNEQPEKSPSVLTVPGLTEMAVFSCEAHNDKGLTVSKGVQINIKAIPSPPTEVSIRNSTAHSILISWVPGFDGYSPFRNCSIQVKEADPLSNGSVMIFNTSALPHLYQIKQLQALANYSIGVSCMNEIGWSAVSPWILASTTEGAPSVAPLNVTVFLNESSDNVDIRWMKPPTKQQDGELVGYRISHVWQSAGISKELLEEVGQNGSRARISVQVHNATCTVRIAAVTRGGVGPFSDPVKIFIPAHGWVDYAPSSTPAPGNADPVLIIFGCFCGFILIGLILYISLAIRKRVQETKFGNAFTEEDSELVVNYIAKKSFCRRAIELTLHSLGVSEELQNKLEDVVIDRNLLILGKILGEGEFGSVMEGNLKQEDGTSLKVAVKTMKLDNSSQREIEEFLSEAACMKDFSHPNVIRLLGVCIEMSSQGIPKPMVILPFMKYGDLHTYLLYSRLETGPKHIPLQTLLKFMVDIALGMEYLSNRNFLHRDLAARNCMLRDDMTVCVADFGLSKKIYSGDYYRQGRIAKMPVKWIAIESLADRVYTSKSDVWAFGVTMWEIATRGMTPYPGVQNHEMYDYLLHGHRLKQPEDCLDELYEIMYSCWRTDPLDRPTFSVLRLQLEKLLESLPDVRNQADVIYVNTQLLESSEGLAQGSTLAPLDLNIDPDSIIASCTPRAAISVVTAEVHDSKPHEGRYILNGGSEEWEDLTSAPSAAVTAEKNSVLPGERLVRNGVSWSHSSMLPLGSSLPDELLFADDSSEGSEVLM
Kind of assay: MerTk degradation in Jurkat cells (Western blot). The class given is cell-based. The note with it: Jurkat, 4 h, 0.001-1 μM, 4 hour-incubation at 37° C., read-out: Jurkat Max % MerTK Degradation. In short, it runs like this: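 MerTK degradation was read by near-infrared Western blot, normalized to actin, in BCA-quantified lysates of Jurkat cells exposed to 0.001-1 μM compound for 4 h at 37 °C.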
(In western blotting, separated proteins are transferred to a membrane and probed.)
As to `CCCCNc1ncc2c(-c3ccc(CNCCCC(=O)N(C)CCOCCCc4ccc5c(c4)n(C)c(=O)n5[C@H]4CCC(=O)NC4=O)cc3)cn([C@H]3CC[C@H](O)CC3)c2n1` [I-67, 4-[([4-[2-(butylamino)-7-[trans-4-hydroxycyclohexy1]-7H-pyrrolo[2,3-d]pyrimidin-5-yl]phenyl]methyl)amino]-N-(2-[3-[1-(2,6-dioxopiperidin-3-y1)-3-methyl-2-oxo-2,3-dihydro-1H-1,3-benzodiazol-5-yl]propoxy]ethyl)-N-methylbutanamide; formic acid], the Dmax is over 50%.

`Cc1ncsc1-c1ccc(CNC(=O)[C@@H]2C[C@@H](O)CN2C(=O)[C@@H](NCCNCCCCCN2CCN(Cc3ccc(-c4cn([C@H]5CC[C@H](O)CC5)c5nc(NCCC(F)(F)F)ncc45)cc3)CC2)C(C)(C)C)cc1` [I-68, (2S,4R)-1-[(2S)-3,3-dimethyl-2-([2-[(5-[4-[(4-[7-[trans-4-hydroxycyclohexyl]-2-[(3,3,3-trifluoropropyl)amino]-7H-pyrrolo[2,3-d]pyrimidin-5yl]phenyl)methyl]piperazin-1-yl]pentyl)amino]ethyl]amino)butanoyl]-4-hydroxy-N-[[4-(4-methyl-1,3-thiazol-5-yl)phenyl]methyl]pyrrolidine-2-carboxamide dihydrochloride]: the Dmax is under 20%.

For `CCCCNc1ncc2c(-c3ccc(CN4CCN(CCCOCCCc5ccc6c(c5)n(C)c(=O)n6[C@H]5CCC(=O)NC5=O)CC4)cc3)cn([C@H]3CC[C@H](O)CC3)c2n1` [I-69, 3-[5-(3-[3-[4-([4-[2-(butylamino)-7-[trans-4-hydroxycyclohexy1]-7H-pyrrolo[2,3-d]pyrimidin-5-yl]phenyl]methyl)piperazin-1-yl]propoxy]propyl)-3-methyl-2-oxo-2,3-dihydro-1H-1,3-benzodiazol-1-yl]piperidine-2,6-dione; bis(formic acid)], the Dmax is over 50%.

With `Cn1c(=O)n([C@H]2CCC(=O)NC2=O)c2ccc(CCCOCCCOCCN3CCN(Cc4ccc(-c5cn([C@H]6CC[C@H](O)CC6)c6nc(NCCC7CC7)ncc56)cc4)CC3)cc21` [I-70, 3-(5-[3-[3-(2-[4-[(4-[2-[(2-cyclopropylethyl)amino]-7-[trans-4-hydroxycyclohexyl]-7H-pyrrolo[2,3-d]pyrimidin-5-yl]phenyl)methyl]piperazin-1-yl]ethoxy)propoxy]propy1]-3-methyl-2-oxo-2,3-dihydro-1H-1,3-benzodiazol-1-y1)piperidine-2,6-dione], the Dmax was over 50%.

Turning to `CCCNc1ncc2c(-c3ccc(CN4CCN(CCOCCCOCCCc5ccc6c(c5)n(C)c(=O)n6[C@H]5CCC(=O)NC5=O)CC4)cc3)cn([C@H]3CC[C@H](O)CC3)c2n1` [I-71, 3-[3-methyl-2-oxo-5-[3-(3-[2-[4-([4-[2-(propylamino)-7-[trans-4-hydroxycyclohexyl]-7H-pyrrolo[2,3-d]pyrimidin-5-yl]phenyl]methyl)piperazin-1-yl]ethoxy]propoxy)propy1]-2,3-dihydro-1H-1,3-benzodiazol-1-yl]piperidine-2,6-dione], the Dmax was over 50%.

Consider `Cn1c(=O)n([C@H]2CCC(=O)NC2=O)c2ccc(CCCOCCCOCCN3CCN(Cc4ccc(-c5cn([C@H]6CC[C@H](O)CC6)c6nc(NCC7CC7)ncc56)cc4)CC3)cc21` [I-72, 3-(5-[3-[3-(2-[4-[(4-[2-[(cyclopropylmethyl)amino]-7-[trans-4-hydroxycyclohexy1]-7H-pyrrolo[2,3-d]pyrimidin-5-yl]phenyl)methyl]piperazin-1-yl]ethoxy)propoxy]propy1]-3-methyl-2-oxo-2,3-dihydro-1H-1,3-benzodiazol-1-yl)piperidine-2,6-dione; formic acid], for which the Dmax is over 50%.

On to `Cn1c(=O)n([C@H]2CCC(=O)NC2=O)c2ccc(CCCOCCCN3CCN(Cc4ccc(-c5cn([C@H]6CC[C@H](O)CC6)c6nc(NCCC(F)(F)F)ncc56)cc4)CC3)cc21` [I-73, 3-[3-methyl-2-oxo-5-[3-(3-[4-[(4-[7-[trans-4-hydroxycyclohexyl]-2-[(3,3,3-trifluoropropyl)amino]-7H-pyrrolo[2,3-d]pyrimidin-5-yl]phenyl)methyl]piperazin-1-yl]propoxy)propyl]-2,3-dihydro-1H-1,3-benzodiazol-1-yl]piperidine-2,6-dione; formic acid], for which the Dmax is over 50%.

Take `CCCCNc1ncc2c(-c3ccc(CN4CCN(CCCOCCCc5ccc6c(c5)n(C)c(=O)n6[C@H]5CCC(=O)NC5=O)CC4)cc3)cn(C3CCCCC3)c2n1` [I-74, 3-[5-(3-[3-[4-([4-[2-(butylamino)-7-cyclohexyl-7H-pyrrolo[2,3-d]pyrimidin-5-yl]phenyl]methyl)piperazin-1-yl]propoxy]propyl)-3-methyl-2-oxo-2,3-dihydro-1H-1,3-benzodiazol-1-yl]piperidine-2,6-dione]: the Dmax was over 50%.

As for `CCCCNc1ncc2c(-c3ccc(C(C)N4CCN(CCCOCCCc5ccc6c(c5)n(C)c(=O)n6C5CCC(=O)NC5=O)CC4)cc3)cn([C@H]3CC[C@H](O)CC3)c2n1` (stereo partly drawn) [I-75, 3-[5-(3-[3-[4-(1-[4-[2-(butylamino)-7-[trans-4-hydroxycyclohexy1]-7H-pyrrolo[2,3-d]pyrimidin-5-yl]phenyl]ethyl)piperazin-1-yl]propoxy]propyl)-3-methyl-2-oxo-2,3-dihydro-1H-1,3-benzodiazol-1-yl]piperidine-2,6-dione; formic acid], the Dmax was over 50%.

Take `CCCCNc1ncc2c(-c3ccc(CN4CCN(CCOCCOCCOCCOCCCc5ccc6c(c5)n(C)c(=O)n6[C@H]5CCC(=O)NC5=O)CC4)nn3)cn([C@H]3CC[C@H](O)CC3)c2n1` [I-76, 3-(5-[1-[4-([6-[2-(butylamino)-7-[trans-4-hydroxycyclohexyl]-7H-pyrrolo[2,3-d]pyrimidin-5-y1]pyridazin-3-y1]methyl)piperazin-1-y1]-3,6,9,12-tetraoxapentadecan-15-y1]-3-methyl-2-oxo-2,3-dihydro-1H-1,3-benzodiazol-1-y1)piperidine-2,6-dione; formic acid]: the Dmax was over 50%.

With `Cn1c(=O)n([C@H]2CCC(=O)NC2=O)c2ccc(CCCOCCCOCCN3CCN(Cc4ccc(-c5cn([C@H]6CC[C@H](O)CC6)c6nc(NCCC(F)(F)F)ncc56)cc4)CC3)cc21` [I-78, 3-(3-methyl-2-oxo-5-[3-[3-(2-[4-[(4-[7-[trans-4-hydroxycyclohexyl]-2-[(3,3,3-trifluoropropyl)amino]-7H-pyrrolo[2,3-d]pyrimidin-5-yl]phenyl)methyl]piperazin-1-yl]ethoxy)propoxy]propy1]-2,3-dihydro-1H-1,3-benzodiazol-1-yl)piperidine-2,6-dione; formic acid], the Dmax is over 50%.

As to `Cn1c(=O)n([C@H]2CCC(=O)NC2=O)c2ccc(CCCOCCCCN3CCN(Cc4ccc(-c5cn([C@H]6CC[C@H](O)CC6)c6nc(NCCC(F)(F)F)ncc56)cc4)CC3)cc21` [I-79, 3-[3-methyl-2-oxo-5-[3-(4-[4-[(4-[7-[trans-4-hydroxycyclohexyl]-2-[(3,3,3-trifluoropropyl)amino]-7H-pyrrolo[2,3-d]pyrimidin-5-yl]phenyl)methyl]piperazin-1-yl]butoxy)propyl]-2,3-dihydro-1H-1,3-benzodiazol-1-yl]piperidine-2,6-dione; formic acid], the Dmax is over 50%.

Regarding `CC(c1ccc(-c2cn([C@H]3CC[C@H](O)CC3)c3nc(NCCC(F)(F)F)ncc23)cc1)N1CCN(CCCOCCCc2ccc3c(c2)n(C)c(=O)n3C2CCC(=O)NC2=O)CC1` (stereo partly drawn) [I-80, 3-[3-methyl-2-oxo-5-[3-(3-[4-[1-(4-[7-[trans-4-hydroxycyclohexyl]-2-[(3,3,3-trifluoropropyl)amino]-7H-pyrrolo[2,3-d]pyrimidin-5-yl]phenyl)ethyl]piperazin-1-yl]propoxy)propyl]-2,3-dihydro-1H-1,3-benzodiazol-1-yl]piperidine-2,6-dione], the Dmax is over 50%.

With `CC(c1ccc(-c2cn([C@H]3CC[C@H](O)CC3)c3nc(NCCC(F)(F)F)ncc23)cc1)N1CCN(CCCCOCCCc2ccc3c(c2)n(C)c(=O)n3C2CCC(=O)NC2=O)CC1` (stereo partly drawn) [I-81, 3-[3-methyl-2-oxo-5-[3-(4-[4-[1-(4-[7-[trans-4-hydroxycyclohexyl]-2-[(3,3,3-trifluoropropyl)amino]-7H-pyrrolo[2,3-d]pyrimidin-5-yl]phenyl)ethyl]piperazin-1-y1]butoxy)propyl]-2,3-dihydro-1H-1,3-benzodiazol-1-yl]piperidine-2,6-dione], the Dmax was over 50%.
